Test results reported in US20260184742A1, “PEPTIDES” (CAROCELL BIO LIMITED, priority 2022, published 2026).
Where two headings read alike, the source gives them in different places. Where no end group is shown, it is not given here.

Experiments:
[1] = system: AD phenotype of skin biopsies (white space; Filaggrin, Involucrin, TSLP); assay: Atopic Dermatitis (AD) model in skin biopsies; format: cell-based; conditions: for phenotype: donor ALC1373, 0.1 and 1.0 μg/ml, appeared an improvement above Clobetasol; for phenotype ("white space") analysis: 0.1, 1.0 and 2.5 μg/ml, not as apparent as Clobetasol
Experimental: The AD phenotype was assessed by measuring the intensity of the “white space” within the biopsies—this was increased from 20% in the media alone control to 80% on AD induction and reduced with Clobetasol (a topical corticosteroid) to 40%. All concentrations of the compound (JEL0305, JEL2603, JEL1103 or JEL0802) reduced the white space by between 50 and 60% as a similar trend to Clobetasol. Three further donors (ALC1373, ALC1366 and ALC1365) were used to develop atopic dermatitis after treatment with activated PBMC and a cytokine cocktail model and assessed phenotypically as well as by biomarker (Filaggrin, Involucrin and TSLP) by immunohistochemistry. For 2 donors (ALC1366 and ALC1365) Filaggrin and Involucrin were reduced compared non-AD induced skin biopsies in media alone. This is the expected response for AD induction. In the presence of the control drug Clobetasol the expression of Filaggrin and Involucrin was increased due to the drug reversing the AD phenotype. […] But this was not as apparent as Clobetasol more than likely due to the lipid formulation causing an upregulation of cytokines. […] Filaggrin results were inconclusive.

[2] = system: human TNFα in activated M1-macrophages (THP1-derived, LPS-activated); assay: In vitro anti-inflammatory activity (ELISA), TNFα as marker; format: cell-based; conditions: compared with T0, 100 ng/mL
Experimental: The anti-inflammatory response of each free peptide and each peptide-polymer formulation was determined using TNFα as a marker. The anti-inflammatory bioactivity was assessed using enzyme-linked immunosorbent assay (ELISA) for quantitative detection of human TNFα in activated M1-macrophages. THP1 human monocytes were differentiated into macrophages (M0), which were then activated (overnight) with lipopolysaccharide (LPS) into M1-macrophages. LPS prompts the abundant production of many pro-inflammatory cytokines from macrophages, including TNF-α, which actively contributes to the inflammatory response. At the T0 and T4 (after 4 weeks storage at RT or 4° C.) time points, each JEL peptide and each JEL-polymer formulation was incubated in previously LPS-activated M1-macrophages for 24 h at 37° C. After incubation, supernatants were collected, centrifuged and stored at −80° C. in readiness for the enzyme-linked immunosorbent assay (ELISA). Each supernatant sample was defrosted and the ELISA assay undertaken according to the Invitrogen protocol. FIGS. 1-4 show the concentrations of human TNFα detected by ELISA after incubation with each free and polymer loaded peptide at a concentration of 100 ng/mL.

[3] = system: HLA (human leucocyte antigen) mismatched GvHD model; assay: Skimune skin explant assay, HLA mismatched GvHD model; format: cell-based; conditions: LNP formulation of the compound, added throughout the mixed lymphocyte reaction and spiked into the skin explant
[4] = system: pro-inflammatory cytokines including Th1 (IFNγ, TNFα, IL-1β) and Th2 cytokines (IL-13 and IL-4)
[5] = system: pro-inflammatory cytokines including Th1 (IFNγ, TNFα, IL-1β) and Th2 cytokines (IL-13 and IL-4); assay: Cytokine levels from the Skimune assays; conditions: current concentrations and lipid formulation; GvHD type assays
[6] = donors ALC1366 and ALC1365, compound at 0.1, 1.0 and 2.5 μg/ml
[7] = after 4 weeks storage at room temperature (RT)

| Molecule | anti-inflammatory activity (human TNFα detected by ELISA) after storage ([2]; after 4 weeks storage at 4° C.) | anti-inflammatory activity (human TNFα detected by ELISA) after storage [2, 7] | Graft versus Host reaction grade [3] | inhibition of the Graft versus Host response [3] | phenotype [1] | phenotype ("white space") analysis ([1]; donors ALC1366 and ALC1365) | pro-inflammatory cytokines [4] | pro-inflammatory cytokines [5] | further results |
| --- | --- | --- | --- | --- | --- | --- | --- | --- | --- |
| C[C@H]1C[C@H]2[C@@H]3CCC4=CC(=O)C=C[C@]4(C)[C@@]3(F)[C@@H](O)C[C@]2(C)[C@@]1(O)C(=O)CCl [Clobetasol, reference compound] | – | – | – | – | – | – | – | – | intensity of the "white space" within the biopsies ([1]; 20% in media alone control, 80% on AD induction): 40%; Filaggrin expression by immunohistochemistry [1, 6]: increased; Involucrin expression by immunohistochemistry [1, 6]: increased |
| HKSRARLIFHEGPCGVRR [JEL1103] | maintained | maintained | Grade III | no inhibition | some improvement of the phenotype | improved and reversal of damage | significant increases | – | – |
| SRALKIFLATRKDRSPWH [JEL2603] | some diminution of anti-inflammatory activity | activity is lost | Grade III | no inhibition | some improvement of the phenotype | improved and reversal of damage | significant increases | – | – |
| SRALLIFQKI [JEL0802, Ser-Arg-Ala-Leu-Leu-Ile-Phe-Gln-Lys-Ile] | – | – | – | – | – | – | – | significant increases | – |
| VSRATRIFKLSQLRGQCA [JEL0305, Val-Ser-Arg-Ala-Thr-Arg-Ile-Phe-Lys-Leu-Ser-Gln-Leu-Arg-Gly-Gln-Cys-Ala] | – | – | – | – | – | – | – | significant increases | – |
